Key:
[1] = system: Mouse erythroleukemia (MEL) cells; experiment: Growth activity following maximal cell damage (two freeze/thaw cycles, 10% DMSO); type: cell-based
Method: Mouse erythroleukemia (MEL) cells were damaged from exposure to two freeze/thaw cycles. The cells were then grown in the presence of 10% dimethylsulfoxide (DMSO), a substance known to damage cell membranes. […] The cells were then subjected to two freeze/thaw cycles (the cells were quickly brought to −135° C., incubated for 1 hour at −135° C. and quickly thawed to 100% humidity and 37° C.). The cell concentration was then determined by counting, using a hematocytometer. The experiments were done in duplicate.

[2] = system: immortal human monocytes (THP-1 cells); experiment: Short-term growth of THP-1 cells in 10% DMSO (trypan-blue test); type: cell-based
Method: Percentage of dead cells (trypan-blue test) and concentrations of live cells (×1,000,000 cells/ml) were determined. The growth medium was RPMI 1640 with fetal serum and other supplements.

THP-1 cells = experiment: DMSO shock of THP-1 cells, percentage of dead cells; type: cell-based, human
Method: Cells were incubated in the presence of 10% DMSO at 37° C. for 90 minutes (tryptan-blue test).

[3] = system: Human umbilical cord vein endothelial cells (HUCVEC); experiment: HUCVEC Assays 2 and 3: starvation; type: cell-based; settings: 11 days without change of medium
Method: Glucural was also tested on two primer cell cultures for protection against cell death in sub-optimal conditions.
Human umbilical cord vein endothelial cells (HUCVEC) were isolated from freshly obtained human umbilical cords in accordance with known methods. HUCVEC were grown in multi-well plates. After saturation of the wells, the assays were initiated. Four wells were used for each experimental group. To cause “mechanical” damage, a higher (2-2½ times) centrifugal speed was used to pick up cells after trypsin treatment. To cause enzymatic damage, full-strength trypsin solution was used instead of the recommended diluted concentration. All assays were started from the last change of medium in wells with saturated cell culture (well bottoms were covered completely by cells). Results were estimated from the percentage of the bottom covered by cells on the last day of the assay.
Assay 2 and 3. Starvation—cell growth without change of medium during 11 days. Assays 2 and 3 were performed using two different HUCVEC isolations.

[4] = system: neurons from rat embryos brains; experiment: Survival of rat embryo brain neurons after mechanical damage; type: cell-based; settings: for number of live neurons vs culture without Glucural: 500 mkg/ml
Description: One particularly attractive application of the cytoprotective quality of 6-methyluracil compounds is to extend the life span of primer cell cultures. Primer cell cultures are cell cultures obtained from various tissues. They are used routinely for new drug screening in pharmaceutical industry. The problem associated with many primer cell cultures is their general inability to propagate and grow, leading to their early death and therefore limiting their use in drug research. For example, a rat embryo brain neuron cell culture has about 80% mortality in 12-14 days.
The following is an example of the difficulty in maintaining the survival rate of primer cell cultures. […] The term “growing” of these primer cell cultures means maintaining their survival for a 10-15 day period. But these cell cultures are very valuable as test objects and are commonly used for the initial testing of new drugs (drug screening). Glucural was tested on the neurons from rat embryos brains that were transferred into cell cultures. The viability of these neurons was tested during 2 stages of the production of embryonic neuron cell cultures: 1) mechanical disassembly and washing, and 2) the “growing” of the cell culture.
After 7 days, this ratio increased to nearly triple as shown on FIGS. 1 and 2.

Drosophila [5] = experiment: X-ray caused loss of X-chromosomes in late oocyte of Drosophila; type: in vivo; settings: 1000 Roentgens
Drosophila [6] = experiment: Sterol-deficit diet and both drugs: frequency of X-chromosomes loss in late oocytes of Drosophila; type: in vivo
Description: The classic genetic model was used, based on the well-known method: the frequency of mutations in Drosophila (fruit flies) caused by X-rays. It is known that the frequency of these mutations can be increased by adding to the food of females certain membrane destabilizers (we used Polyene Antibiotics—Amphotericin B), or by the use of a special diet. Like all insects, Drosophila obtain all of their sterols from food (yeast for Drosophila). A special diet rich with Nistatin (Polyene antibiotic) resistant yeast was used.
The frequency of the loss of x-chromosomes (males excluded) was measured after crossing with the […]. Females were given a dose of 1000 Roentgens 5 days before being given the food additive or “special diet”.
Influence of sterol-deficit diet and both drugs on the frequency of X-chromosomes loss in late oocytes of Drosophila. Groups 1-4 received yeast of wild type, groups 5,6 (diet) received nistatin resistant yeasts meaning groups 5,6 had abnormal sterols in membranes: […]

mice = experiment: Toxicity LD50; type: in vivo
[7] = standard tests by Dr. Kirk Sperber, unpublished data; cited from earlier work
[8] = 10% DMSO plus Glucural 10 mkg/ml, 4.5 hrs
[9] = 10% DMSO plus Glucural 10 mkg/ml, 24 hrs
[10] = 10% DMSO plus Glucural 20 mkg/ml, 4.5 hrs
[11] = 10% DMSO plus Glucural 20 mkg/ml, 24 hrs
[12] = 10% DMSO plus Glucural 50 mkg/ml, 4.5 hrs
[13] = 10% DMSO plus Glucural 50 mkg/ml, 24 hrs

Substance: complex of 2,4-dihydroxy-6-methylpyrimidine with N-methyl-D-glucamine [Glucural]
- The number of cells per 1 ml ([1]; Glucural 5 mkg/ml): 0 ×10^4
- The number of cells per 1 ml ([1]; Glucural 10 mkg/ml): 0 ×10^4
- The number of cells per 1 ml ([1]; Glucural 25 mkg/ml): 53 ± 7 ×10^4
- The number of cells per 1 ml ([1]; Glucural 50 mkg/ml): 107 ± 7 ×10^4
- Percentage of dead cells (trypan-blue test) [2, 8]: 13.3 ± 1.3%
- concentrations of live cells [2, 8]: 1.06 ± 0.08 ×1,000,000 cells/ml
- Percentage of dead cells (trypan-blue test) [2, 9]: 40.5 ± 0.5%
- concentrations of live cells [2, 9]: 2.21 ± 0.26 ×1,000,000 cells/ml
- Percentage of dead cells (trypan-blue test) [2, 10]: 2.6 ± 2.0%
- concentrations of live cells [2, 10]: 0.52 ± 0.05 ×1,000,000 cells/ml
- Percentage of dead cells (trypan-blue test) [2, 11]: 36.1 ± 0.75%
- concentrations of live cells [2, 11]: 0.86 ± 0.04 ×1,000,000 cells/ml
- Percentage of dead cells (trypan-blue test) [2, 12]: 17.2 ± 0.4%
- concentrations of live cells [2, 12]: 0.65 ± 0.03 ×1,000,000 cells/ml
- Percentage of dead cells (trypan-blue test) [2, 13]: 39.5 ± 1.1%
- concentrations of live cells [2, 13]: 1.31 ± 0.02 ×1,000,000 cells/ml
- percentage of dead THP-1 cells (THP-1 cells; Control + Glucural 25 mkg/ml, assay 1): 3.9 ± 0.7%
- percentage of dead THP-1 cells (THP-1 cells; Control + Glucural 25 mkg/ml, assay 2): 5.8 ± 3.1%
- percentage of dead THP-1 cells (THP-1 cells; Control + Glucural 25 mkg/ml, assay 4): 3.0 ± 1.0%
- percentage of dead THP-1 cells (THP-1 cells; DMSO shock (10% DMSO, 37° C., 90 minutes) + Glucural 25 mkg/ml, assay 1): 4.1 ± 1.6%
- percentage of dead THP-1 cells (THP-1 cells; DMSO shock (10% DMSO, 37° C., 90 minutes) + Glucural 25 mkg/ml, assay 2): 7.7 ± 3.4%
- percentage of dead THP-1 cells (THP-1 cells; DMSO shock (10% DMSO, 37° C., 90 minutes) + Glucural 25 mkg/ml, assay 3): 4.6 ± 2.2%
- percentage of dead THP-1 cells (THP-1 cells; DMSO shock (10% DMSO, 37° C., 90 minutes) + Glucural 25 mkg/ml, assay 4): 5.0 ± 2.3%
- Percent of well-bottoms covered by cells ([3]; Assay 2, Glucural 300 mkg/ml): 70-80%
- Percent of well-bottoms covered by cells ([3]; Assay 2, Glucural 400 mkg/ml): 80-90%
- Percent of well-bottoms covered by cells ([3]; Assay 2, Glucural 500 mkg/ml): 80-90%
- Percent of well-bottoms covered by cells ([3]; Assay 3, Glucural 300 mkg/ml): 100%
- Percent of well-bottoms covered by cells ([3]; Assay 3, Glucural 400 mkg/ml): 100%
- Percent of well-bottoms covered by cells ([3]; Assay 3, Glucural 500 mkg/ml): 100%
- increase of life span of rat embryo brain neuron cell culture [4]: more than two fold
- number of live neurons vs culture without Glucural ([4]; after 7 days): nearly triple
- number of live neurons vs culture without Glucural ([4]; after one day): more than double
- Frequency of the loss of X-chromosomes, % (Drosophila [5]; 1.0 mkg/female): 1.7 ± 0.21%
- Frequency of the loss of X-chromosomes, % (Drosophila [5]; 2.0 mkg/female): 1.1 ± 0.20%
- Frequency of the loss of X-chromosomes, % (Drosophila [5]; 2.5 mkg/female): 0.9 ± 0.18%
- Frequency of the loss of X-chromosomes, % (Drosophila [5]; 5.0 mkg/female): 0.7 ± 0.14%
- Frequency of the loss of X-chromosomes, % (Drosophila [5]; 10.0 mkg/female): 1.2 ± 0.19%
- Protective Effect of Glucural, % (Drosophila [6]; Amphotericin B/Glucural vs Amphotericin B): 26%
- Frequency of X-Chromosomes loss, % (Drosophila [6]; Diet (nistatin resistant yeasts)): 4.1 ± 0.33%
- Protective Effect of Glucural, % (Drosophila [6]; Diet/Glucural vs Diet): 27%
- Protective Effect of Glucural, % (Drosophila [6]; Glucural vs Control): 50%
- Frequency of X-Chromosomes loss, % (Drosophila [6]; yeast of wild type): 0.9 ± 0.14%
- LD50 equivalent for a 50-kg person (mice; extrapolated from mice): 100 g
- LD50 (mice; mice): about 2 g/kg
- anti-inflammatory action compared with thalidomide [7]: equal anti-inflammatory action as thalidomide

From patent US20050064382A1, “Method of prevention of lysosomal leakage in eukaryotic cells by using 6-methyluracil based water-soluble compounds and method of producing thereof” (priority 2002, published 2005)
